Measurements published in patent US20120035175A1, “Novel salts as Anti-Inflammatory, Immunomodulatory and Anti-Proliferatory Agents” (4SC AG, priority 2010, published 2012).
Read-outs that look alike come from different tables or passages of the source.

Columns and labels:
recombinant murine DHODH = target: T1, recombinant murine DHODH (Mus musculus, UniProt O35435); assay: Inhibition assay of DHODH activity (murine enzyme); assay type: biochemical; conditions: class symbols, key in nM
T1 construct: Prof; M. Löffler, Marburg, Germany (gift)
Method: (§1) The standard assay mixture contained 50 μM decyclo ubichinone, 100 μM dihydroorotate, 60 μM 2,6-dichloroindophenol, as well as 20 mU DHODH. The volume activity of the recombinant enzyme used was 30 U/ml. Measurements were conducted in 50 mM TrisHCl (150 mM KCl, 0.1% Triton X-100, pH 8.0) at 30° C. in a final volume of 1 ml. The components were mixed, and the reaction was started by adding dihydroorotate. The course of reaction was followed by spectrophotometrically measuring the decrease in absorption at 600 nm for […].
(§2) Inhibitory studies were conducted in a standard assay with additional variable amounts of inhibitor. […] These investigations were carried out with recombinant human as well as with recombinant murine DHODH provided by Prof. M. Löffler, Marburg, Germany [M. Löffler, Chem. Biol. Interact.

recombinant human DHODH = target: T2, recombinant human DHODH (Homo sapiens, UniProt Q02127); assay: Inhibition assay of DHODH activity (human enzyme); assay type: biochemical
T2 construct: Prof; M. Löffler, Marburg, Germany (gift)
Method: as §1, §2

[1] = Dynamic vapor sorption (water uptake); assay type: physicochemical; conditions: for % water uptake at 85% r.h.: about 85% r.h.
Excerpt: DVS (SMS): Surface Measurement Systems Ltd. DVS-1 water vapour sorption analyzer. The sample is placed on a platinum sample pan and allowed to equilibrate at a given relative humidity (r.h.), usually 50% r.h. Then, a pre-defined humidity program was started with a scanning rate of 5% r.h. change per hour. First step: from 50% r.h. to 0% r.h. (in case of a possibly hydrate as starting material 50 to 95% r.h.), second step: from 0% to 95% r.h. (in case of a possibly hydrate as starting material 95 to 0% r.h.)

[2] = Long-term stability, 18 months storage, HPLC; assay type: physicochemical
Method: HPLC: HPLC was performed with a Dionex UltiMate® 3000 liquid chromatograph comprising a solvent Rack, a vacuum degasser, a binary pump (mikro), a static mixer (500 μl), an autosampler, a 25 μl sample loop, a 100 μl syringe, a column oven and a DAD detector (semimicro measuring cell), which was set up for UV analysis. Data analysis was done with Chromeleon® 6.80 SP3. Compounds were separated at 30° C. on a Phenomenex Onyx™ Monolithic C18 50×2 mm column. The injection volume was 2 μl and the detection wavelength was 305 nm. As mobile phase, a gradient of 0.1% formic acid in HPLC grade water/acetonitrile was used, starting at a concentration of 5% acetonitrile. The starting concentration was held for 1 minute, then the gradient was ramped linearly to 95% acetonitrile over the course of 2 min, held for 0.7 min at 95% acetonitrile, after which it was returned to 5% acetonitrile within 0.1 min and kept constant for 0.7 min to re-equilibrate the column. The mobile phase flow rate was 1.5 ml/min.
The compounds were stored for 18 months at ambient conditions (20-25° C., 30-60% relative humidity) and subsequently analysed by HPLC for purity.

[3] = Aqueous solubility and pH of the saturated solution; assay type: physicochemical
Method: Solubility: Solubility was determined by a stepwise addition of 0.05 mL portions of solvent to a suspension of 10 mg of sample in 0.05 mL of solvent.
The aqueous solubility of the respective compound was determined by HPLC, and the pH of the resulting saturated solution was measured. For each compound tested, a suspension was prepared and equilibrated for 24 hours at 25° C. The suspension was filtered, the filtrate was diluted and analysed by HPLC.

T1 sequence (O35435 whole entry): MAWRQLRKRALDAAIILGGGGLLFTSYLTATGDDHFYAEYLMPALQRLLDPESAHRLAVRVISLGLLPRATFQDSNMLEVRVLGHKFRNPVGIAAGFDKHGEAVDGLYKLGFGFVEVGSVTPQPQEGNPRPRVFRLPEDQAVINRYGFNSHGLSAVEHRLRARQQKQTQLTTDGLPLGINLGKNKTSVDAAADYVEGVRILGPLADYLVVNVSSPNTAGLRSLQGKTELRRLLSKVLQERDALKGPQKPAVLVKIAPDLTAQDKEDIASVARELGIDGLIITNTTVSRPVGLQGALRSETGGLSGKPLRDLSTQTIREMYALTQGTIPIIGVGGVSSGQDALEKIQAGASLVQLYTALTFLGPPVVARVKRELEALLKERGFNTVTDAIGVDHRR
T2 sequence (Q02127 whole entry): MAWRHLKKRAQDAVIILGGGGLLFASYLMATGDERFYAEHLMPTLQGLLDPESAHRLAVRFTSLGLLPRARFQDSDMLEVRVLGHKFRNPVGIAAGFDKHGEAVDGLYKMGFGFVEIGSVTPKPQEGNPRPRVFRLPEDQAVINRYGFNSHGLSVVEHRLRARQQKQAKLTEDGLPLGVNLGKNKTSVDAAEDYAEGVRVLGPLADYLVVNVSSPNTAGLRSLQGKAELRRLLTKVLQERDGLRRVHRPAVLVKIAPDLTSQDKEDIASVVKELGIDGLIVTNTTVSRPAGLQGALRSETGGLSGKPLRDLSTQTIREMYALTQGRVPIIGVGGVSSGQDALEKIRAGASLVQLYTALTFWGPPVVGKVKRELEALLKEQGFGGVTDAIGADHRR

SMILES | IC50 (recombinant murine DHODH) [nM] | also measured
O=C(O)C1=C(C(=O)Nc2ccc(-c3ccccc3F)cc2)CCC1 [Compound 13, 2-((2′-fluoro-[1,1′-biphenyl]-4-yl)carbamoyl)cyclopent-1-enecarboxylic acid] | > 1500 | 
O=C(O)C1=C(C(=O)Nc2ccc(-c3ccccc3Cl)cc2)CCC1 [Compound 14, 2-((2′-chloro-[1,1′-biphenyl]-4-yl)carbamoyl)cyclopent-1-enecarboxylic acid] | > 1500 | 
COc1ccc(-c2ccc(NC(=O)C3=C(C(=O)O)CCC3)cc2Cl)cc1 [Compound 19, 2-((2-chloro-4′-methoxy-[1,1′-biphenyl]-4-yl)carbamoyl)cyclopent-1-enecarboxylic acid] | < 800 | 
O=C(O)C1=C(C(=O)Nc2cc(Br)c(OCc3cc(F)ccc3F)c(Br)c2)CCC1 [Compound 24, 2-((3,5-dibromo-4-((2,5-difluorobenzyl)oxy)phenyl)carbamoyl)cyclopent-1-enecarboxylic acid] | 800 to 1500 | 
O=C(O)C1=C(C(=O)Nc2cc(Br)c(OCc3ccc(F)c(F)c3)c(Br)c2)CCC1 [Compound 25, 2-((3,5-dibromo-4-((3,4-difluorobenzyl)oxy)phenyl)carbamoyl)cyclopent-1-enecarboxylic acid] |  | IC50 (recombinant human DHODH; recombinant human DHODH, class symbols, key in nM, read-out: human IC50-Value): < 800 nM
O=C(O)C1=C(C(=O)Nc2ccc(-c3cccc(F)c3)cc2F)CCC1 [Compound 27, 2-((3,3′-difluoro-[1,1′-biphenyl]-4-yl)carbamoyl)cyclopent-1-enecarboxylic acid] | > 1500 | 
O=C(O)C1=C(C(=O)Nc2cc(Br)c(OCc3ccccc3)c(Br)c2)CSC1 [Compound 29, 4-((4-(benzyloxy)-3,5-dibromophenyl)carbamoyl)-2,5-dihydrothiophene-3-carboxylic acid] | > 1500 | 
O=C(O)C1=C(C(=O)Nc2ccc(-c3ccccc3Cl)cc2)CSC1 [Compound 41, 4-((2′-chloro-[1,1′-biphenyl]-4-yl)carbamoyl)-2,5-dihydrothiophene-3-carboxylic acid] | > 1500 | 
Cc1cccc(Sc2ccc(NC(=O)C3=C(C(=O)O)CCC3)cc2)c1 [Compound 42, 2-((4-(m-tolylthio)phenyl)carbamoyl)cyclopent-1-enecarboxylic acid] | < 800 | 
CCOc1cccc(-c2ccc(NC(=O)C3=C(C(=O)O)CCC3)c(F)c2)c1 [Compound 46, 2-((3′-ethoxy-3-fluoro-[1,1′-biphenyl]-4-yl)carbamoyl)cyclopent-1-enecarboxylic acid] | > 1500 | 
O=C(O)C1=C(C(=O)Nc2ccc(Oc3ccccc3)cc2)CCC1 [Compound 50, 2-((4-phenoxyphenyl)carbamoyl)cyclopent-1-enecarboxylic acid] | < 800 | 
COc1ccccc1-c1ccc(NC(=O)C2=C(C(=O)O)CCC2)c(Cl)c1 [Compound 53, 2-((3-chloro-2′-methoxy-[1,1′-biphenyl]-4-yl)carbamoyl)cyclopent-1-enecarboxylic acid] | 800 to 1500 | 
COc1ccccc1-c1ccc(NC(=O)C2=C(C(=O)O)CCC2)cc1Cl [Compound 54, 2-((2-chloro-2′-methoxy-[1,1′-biphenyl]-4-yl)carbamoyl)cyclopent-1-enecarboxylic acid] | 800 to 1500 | 
COc1ccccc1-c1c(F)c(F)c(NC(=O)C2=C(C(=O)O)CCC2)c(F)c1F [Compound 56, 2-((2,3,5,6-tetrafluoro-2′-methoxy-[1,1′-biphenyl]-4-yl)carbamoyl)cyclopent-1-enecarboxylic acid] | < 800 | 
COc1ccccc1-c1ccc(NC(=O)C2=C(C(=O)O)CCC2)c(C)c1 [Compound 57, 2-((2′-methoxy-3-methyl-[1,1′-biphenyl]-4-yl)carbamoyl)cyclopent-1-enecarboxylic acid] | 800 to 1500 | 
COc1ccccc1-c1cc(Cl)c(NC(=O)C2=C(C(=O)O)CCC2)c(Cl)c1 [Compound 58, 2-((3,5-dichloro-2′-methoxy-[1,1′-biphenyl]-4-yl)carbamoyl)cyclopent-1-enecarboxylic acid] | 800 to 1500 | 
CCOc1ccccc1-c1cc(F)c(NC(=O)C2=C(C(=O)O)CCC2)c(F)c1 [Compound 62, 2-((2′-ethoxy-3,5-difluoro-[1,1′-biphenyl]-4-yl)carbamoyl)cyclopent-1-enecarboxylic acid] | 800 to 1500 | 
CCOc1cccc(-c2cc(F)c(NC(=O)C3=C(C(=O)O)CCC3)c(F)c2)c1 [Compound 63, 2-((3′-ethoxy-3,5-difluoro-[1,1′-biphenyl]-4-yl)carbamoyl)cyclopent-1-enecarboxylic acid] | 800 to 1500 | 
O=C(O)C1=C(C(=O)Nc2c(F)cc(-c3ccccc3F)cc2F)CCC1 [Compound 66, 2-((2′,3,5-trifluoro-[1,1′-biphenyl]-4-yl)carbamoyl)cyclopent-1-enecarboxylic acid] | 800 to 1500 | 
COc1ccc(-c2cc(F)c(NC(=O)C3=C(C(=O)O)CCC3)c(F)c2)c(OC)c1 [Compound 67, 2-((3,5-difluoro-2′,4′-dimethoxy-[1,1′-biphenyl]-4-yl)carbamoyl)cyclopent-1-enecarboxylic acid] | > 1500 | 
O=C(O)C1=C(C(=O)Nc2ccc(OCc3ccccc3C(F)(F)F)c(Cl)c2)CCC1 [Compound 68, 2-((3-chloro-4-((2-(trifluoromethyl)benzyl)oxy)phenyl)carbamoyl)cyclopent-1-enecarboxylic acid] | > 1500 | 
O=C(O)C1=C(C(=O)Nc2ccc(OCc3c(F)cccc3Cl)c(Cl)c2)CCC1 [Compound 69, 2-((3-chloro-4-((2-chloro-6-fluorobenzyl)oxy)phenyl)carbamoyl)cyclopent-1-enecarboxylic acid] | < 800 | IC50 (recombinant human DHODH): < 800 nM
O=C(O)C1=C(C(=O)Nc2ccc(OCc3ccccc3)c(Cl)c2)CCC1 [Compound 72, 2-((4-(benzyloxy)-3-chlorophenyl)carbamoyl)cyclopent-1-enecarboxylic acid] | 800 to 1500 | 
O=C(O)C1=C(C(=O)Nc2ccc(OCc3ccccc3F)c(Cl)c2)CCC1 [Compound 74, 2-((3-chloro-4-((2-fluorobenzyl)oxy)phenyl)carbamoyl)cyclopent-1-enecarboxylic acid] | < 800 | 
CCNCC.COc1cccc(-c2ccc(NC(=O)C3=C(C(=O)O)CCC3)c(F)c2)c1 [Diethylamine (DEA) salt] |  | % water uptake at 95% r.h. [1]: 0.5%; % water uptake at 85% r.h. [1]: 0.2%; Peak area ([2]; HPLC after 18 months storage at ambient conditions (20-25° C., 30-60% relative humidity)): >99%; Occurrence of hydrolysis product in HPLC after 18 months storage ([2]; ambient conditions (20-25° C., 30-60% relative humidity), LOD for hydrolysis product: 0.1 μg/ml): Below LOD*
COc1cccc(-c2ccc(NC(=O)C3=C(C(=O)[O-])CCC3)c(F)c2)c1.[K+] [K salt] |  | % water uptake at 95% r.h. [1]: Ca. 1%; % water uptake at 85% r.h. [1]: Ca. 0.5%
COc1cccc(-c2ccc(NC(=O)C3=C(C(=O)O)CCC3)c(F)c2)c1.N=C(N)NCCCC(N)C(=O)O [L-Arginine salt] |  | % water uptake at 95% r.h. [1]: >12%; % water uptake at 95% r.h. ([1]; listed as arginine salt): > 12%; % water uptake at 85% r.h. [1]: 1.7%
COc1cccc(-c2ccc(NC(=O)C3=C(C(=O)[O-])CCC3)c(F)c2)c1.COc1cccc(-c2ccc(NC(=O)C3=C(C(=O)[O-])CCC3)c(F)c2)c1.[Mg+2] [Mg salt] |  | % water uptake at 95% r.h. [1]: Ca. 10%; % water uptake at 85% r.h. [1]: Ca. 5%
COc1cccc(-c2ccc(NC(=O)C3=C(C(=O)[O-])CCC3)c(F)c2)c1.[Na+] [Na salt] |  | % water uptake at 95% r.h. [1]: Ca. 7.5%; % water uptake at 85% r.h. [1]: Ca. 5%
[O-][n+]1ccccc1[S-].[O-][n+]1ccccc1[S-].[Zn+2] [Zinc salt] |  | % water uptake at 95% r.h. [1]: 5.5%; % water uptake at 85% r.h. [1]: 4%; Solubility ([3]; aqueous, suspension equilibrated for 24 hours at 25° C.): 950 µg/mL; pH ([3]; pH of the resulting saturated solution): 6.3
